The values that follow are results of earlier work, collected in patent publication US20030134851A1, “Methods and compositions for providing glutamine” (priority 2001, published 2003).

The conditions of this data set: rodents; cited from earlier work.

In the case of `O=C1CC[C@@H](C(=O)O)N1` [pyroglutamic acid], the Neurotoxicity entry is on record as “is a neurotoxin in rodents”.
